Results taken from patent US8969395B2, “Triterpenoid derivatives useful as antiproliferative agents” (Universidade de Coimbra, priority 2009, dated 2015).

Experiments:
[1] = tested on: HepG2 (human hepatocellular carcinoma); assay: Cytotoxic activity, MTT assay, HepG2; format: cell-based; conditions: mean ±SD
Description: (§1) The cytotoxic of compounds of formulas (I) and (II) 14-50 was assessed towards human cancer (HepG2, HeLa and Jurkat) cell lines (Table 3 below). Compounds presented on Table 4 were also tested against a non-tumoral liver cell line (Chang liver). The cell viability of HeLa, HepG2 and Chang liver cells was determined by the MTT assay. Briefly, exponentially growing cells were plated in 96-well plates at a density of 1×10^3, 8×10^3 and 5×10^3 cells/well respectively and incubated for 24 h before treatment. The grown medium was replaced with one contained the tested compounds dissolved in DMSO (final DMSO concentration <0.1%) at different concentrations, in triplicate wells, and cells were incubated for 72 h. After incubation with the compounds, the medium was removed and MTT solution (0.5 mg/ml, 100 μl) was added to each well and the plates were incubated again for 1 h. DMSO (100 μl) was then added to dissolve the formazan crystals and the plates were immediately read at 550 nm on an ELISA plate reader (Tecan Sunrise MR20-301, TECAN, Austria). For the Jurkat cells, the cell viability was determined by the XTT assay. Briefly, exponentially growing cells were plated in 96-well plates at a density of 5.5×10^3 cells/well, treated with different concentrations of compounds in triplicate and incubated for 72 h. After incubation with the compounds the XTT labeling mixture (100 μl) were added to each of the wells and after a 4 h incubation period the plates were read at 450 nm on an ELISA plate reader. […] Known for its cytotoxic activity, betulinic acid 2 was used as a positive control in this experimentation. […] All the IC50 results represent an average of a minimum of three experiments and were expressed as means±standard deviation (SD).

Jurkat (human leukemia) = assay: Cytotoxic activity, XTT assay, Jurkat; format: cell-based; conditions: 72 h, mean ±SD
Description: as §1

[2] = tested on: HeLa (human cervical adenocarcinoma); assay: Cytotoxic activity, MTT assay, HeLa; format: cell-based; conditions: 72 h, mean ±SD
Description: The cytotoxic of compounds of formulas (I) and (II) 14-50 was assessed towards human cancer (HepG2, HeLa and Jurkat) cell lines (Table 3 below). Compounds presented on Table 4 were also tested against a non-tumoral liver cell line (Chang liver). The cell viability of HeLa, HepG2 and Chang liver cells was determined by the MTT assay. Briefly, exponentially growing cells were plated in 96-well plates at a density of 1×10^3, 8×10^3 and 5×10^3 cells/well respectively and incubated for 24 h before treatment. The grown medium was replaced with one contained the tested compounds dissolved in DMSO (final DMSO concentration <0.1%) at different concentrations, in triplicate wells, and cells were incubated for 72 h. After incubation with the compounds, the medium was removed and MTT solution (0.5 mg/ml, 100 μl) was added to each well and the plates were incubated again for 1 h. DMSO (100 μl) was then added to dissolve the formazan crystals and the plates were immediately read at 550 nm on an ELISA plate reader (Tecan Sunrise MR20-301, TECAN, Austria). For the Jurkat cells, the cell viability was determined by the XTT assay. Briefly, exponentially growing cells were plated in 96-well plates at a density of 5.5×10^3 cells/well, treated with different concentrations of compounds in triplicate and incubated for 72 h. After incubation with the compounds the XTT labeling mixture (100 μl) were added to each of the wells and after a 4 h incubation period the plates were read at 450 nm on an ELISA plate reader. […] Known for its cytotoxic activity, betulinic acid 2 was used as a positive control in this experimentation.

[3] = tested on: Chang liver (human normal liver cells); assay: Cytotoxic activity against non-tumoral cell line, MTT assay; format: cell-based; conditions: 72 h, mean ±SD
Description: as §1

HepG2 cells = assay: Cell cycle analysis by flow cytometry (FACS, PI), HepG2; format: cell-based, human; conditions: HepG2, compound at its IC50, 72 h
Description: (§2) The effects on the cell cycle of some of these compounds were assessed through flow cytometry by using a fluorescence-activated cell sorter (FACS) (Table 5 below). For this assay 2.3×10^5 HepG2 cells/well, 2.9×10^4 HeLa cells/well, 1.6×10^5 Jurkat cells/well and 1.4×10^5 Chang liver cells/well were plated in 6 well plates with 2 ml of medium. The number of cells was determined by the relationship number of cells/area wells, considering the number of cells that were cultured in 96-well plates. […] Chang liver cells were incubated with compounds 20, […] at concentrations corresponding to the IC80 determined for HepG2 at 72 h. Following 72 h. of incubation, cells were harvested by mild trypsinization, collected by centrifugation and stained in ice-cold Tris-buffered saline (TBS), containing 1 mg/ml PI, 10 mg/ml RNAse free of DNAase and 0.1% Igepal CA-630 for 1 h at 4° C. FACS analysis was carried out at 488 nm in an Epics XL flow cytometer (Coulter Corporation, Hialeah, Fla.). Data from 8×10^3 cells were collected and analyzed using Multicycle program (Phoenix Flow Systems, San Diego, Calif.). All experiments were performed three times with three replicates per experiment. […] To explore the selectivity of the effect on tumor cells, we also tested compounds 20, 44 and 46 in a non-malignant cell line. Chang liver cells were treated with the compounds at the IC80 values determined for HepG2 after 72 h of incubation and no effect was observed, indicating a selective effect of these agents (Table 5 below).

HeLa cells = assay: Cell cycle analysis by flow cytometry (FACS, PI), HeLa; format: cell-based, human; conditions: compound at its IC50, 72 h
Description: as §2

Jurkat cells = assay: Cell cycle analysis by flow cytometry (FACS, PI), Jurkat; format: cell-based, human; conditions: compound at its IC50, 72 h
Description: as §2

[4] = tested on: LAPC4 (human prostate adenocarcinoma); assay: Cytotoxic activity, LAPC4; format: cell-based; conditions: mean ±SD
Description: (§3) Compounds presented in Table 6 were also tested in the following cell lines: PC-3 (human prostate adenocarcinoma), LNCaP (human prostate adenocarcinoma), LAPC4 (human prostate adenocarcinoma) and HT-29 (human colon adenocarcinoma).

[5] = tested on: LNCaP (human prostate adenocarcinoma); assay: Cytotoxic activity, LNCaP; format: cell-based; conditions: mean ±SD
Description: as §3

[6] = tested on: PC-3 (human prostate adenocarcinoma); assay: Cytotoxic activity, PC-3; format: cell-based; conditions: mean ±SD
Description: as §3

Row | Compound | IC50 ([1]; 72 h) [µM] | IC50 (Jurkat (human leukemia)) [µM] | IC50 [2] [µM] | IC50 [3] [µM] | IC50 [4] [µM] | IC50 [5] [µM] | IC50 [6] [µM] | also measured
1 | C=C(C)[C@@H]1CC[C@]2(C(=O)O)CC[C@]3(C)[C@H](CC[C@@H]4[C@@]5(C)CC[C@H](O)C(C)(C)[C@@H]5CC[C@]43C)[C@@H]12 [Compound 2, Betulinic acid, reference compound] |  |  |  |  |  |  |  | IC50 ([1]; Homo sapiens, HepG2, 72 h): 36.4 ± 1.5 µM; IC50 (Jurkat (human leukemia); Homo sapiens, Jurkat): 26.9 ± 2.2 µM; IC50 ([2]; Homo sapiens, HeLa): 26 ± 2.1 µM; IC50 ([3]; Homo sapiens, Chang liver): 92.3 ± 4.1 µM; Phase of cell cycle (% of cells) G0/G1 (HepG2 cells): 59.7 ± 2.0 % of cells; Phase of cell cycle (% of cells) G2/M (HepG2 cells): 14.3 ± 0.9 % of cells; Phase of cell cycle (% of cells) S (HepG2 cells): 25.9 ± 1.3 % of cells; Phase of cell cycle (% of cells) G0/G1 (HeLa cells): 66.8 ± 1.2 % of cells; Phase of cell cycle (% of cells) G2/M (HeLa cells): 11.7 ± 1.1 % of cells; Phase of cell cycle (% of cells) S (HeLa cells): 21.4 ± 0.9 % of cells; Phase of cell cycle (% of cells) G0/G1 (Jurkat cells): 56.8 ± 5.0 % of cells; Phase of cell cycle (% of cells) G2/M (Jurkat cells): 24.1 ± 4.7 % of cells; Phase of cell cycle (% of cells) S (Jurkat cells): 18.9 ± 1.2 % of cells
2 | C=C(C)[C@@H]1CC[C@]2(COC(=O)n3ccnc3)CC[C@]3(C)[C@H](CC[C@@H]4[C@@]5(C)CC[C@H](O)C(C)(C)[C@@H]5CC[C@]43C)[C@@H]12 [Compound 14, 3β-hydroxy-lup-20(29)-en-28-yl-1H-imidazole-1-carboxylate] | 4.2 ± 0.3 | 16.3 ± 1.2 | 7.6 ± 0.6 | 79.7 ± 6.4 | 10.3 ± 1.6 | 13 ± 1.5 | 21 ± 2 | 
3 | C=C(C)[C@@H]1CC[C@]2(COC(=O)n3ccnc3)CC[C@]3(C)[C@H](CC[C@@H]4[C@@]5(C)CC[C@H](OC(=O)n6ccnc6)C(C)(C)[C@@H]5CC[C@]43C)[C@@H]12 [Compound 17, Lup-20(29)-en-3β,28-di-yl-(1H-imidazole-1-carboxylate)] | > 30 | > 30 | > 30 |  | 12.9 ± 1.1 | 14.4 ± 1.3 | > 30 | 
4 | C=C(C)[C@@H]1CC[C@]2(COC(C)=O)CC[C@]3(C)[C@H](CC[C@@H]4[C@@]5(C)CC[C@H](OC(=O)n6ccnc6C)C(C)(C)[C@@H]5CC[C@]43C)[C@@H]12 [Compound 26, 28-acetoxy-lup-20(29)-en-3β-yl-2′-methyl-1H-imidazole-1-carboxylate] | > 30 | > 30 | > 30 |  |  |  |  | 
5 | C=C(C)[C@@H]1CC[C@]2(C(=O)O)CC[C@]3(C)[C@H](CC[C@@H]4[C@@]5(C)CC[C@H](OC(=O)n6ccnc6)C(C)(C)[C@@H]5CC[C@]43C)[C@@H]12 [Compound 28, 3β-(1H-imidazole-1-carbonyloxy)-lup-20(29)-en-28-oic acid] | 6.2 ± 0.2 | 5.2 ± 0.7 | 5.1 ± 0.3 | 56.8 ± 2.2 | 11.8 ± 0.9 | 15.6 ± 0.8 | 5.6 ± 0.4 | 
6 | C=C(C)[C@@H]1CC[C@]2(C(=O)n3ccnc3)CC[C@]3(C)[C@H](CC[C@@H]4[C@@]5(C)CC[C@H](OC(=O)n6ccnc6)C(C)(C)[C@@H]5CC[C@]43C)[C@@H]12 [Compound 30, 28-(1H-imidazole-1-yl)-28-oxo-lup-20(29)-en-3β-yl-1H-imidazole-1-carboxylate] | 2.9 ± 0.4 | 6 ± 1.2 | 8.2 ± 0.4 | 150 ± 13.6 | 4.4 ± 0.2 | 1.9 ± 0.2 | 1.1 ± 0.1 | 
7 | C=C(C)[C@@H]1CC[C@]2(C(=O)OC)CC[C@]3(C)[C@H](CC[C@@H]4[C@@]5(C)CC[C@H](OC(=O)n6ccnc6)C(C)(C)[C@@H]5CC[C@]43C)[C@@H]12 [Compound 33, Methyl 3β-(1H-imidazole-1-carbonyloxy)-lup-20(29)-en-28-oate] | 4.3 ± 0.1 | 9.9 ± 0.6 | 8.2 ± 0.5 | 73.9 ± 3.6 |  |  |  | 
8 | C=C(COC)[C@@H]1CC[C@]2(COC(=O)n3ccnc3)CC[C@]3(C)[C@H](CC[C@@H]4[C@@]5(C)CC[C@H](O)C(C)(C)[C@@H]5CC[C@]43C)[C@@H]12 [Compound 35, 3β-hydroxy-30-methoxylup-20(29)-en-28-yl-1H-imidazole-1-carboxylate] | 8.3 ± 0.4 | 12.2 ± 1.3 | 9.8 ± 0.6 | 96.4 ± 7.5 | 9.5 ± 0.7 | 7.7 ± 0.9 | 11.4 ± 1.3 | 
9 | C=C(COC)[C@@H]1CC[C@]2(COC(=O)n3ccnc3)CC[C@]3(C)[C@H](CC[C@@H]4[C@@]5(C)CC[C@H](OC(=O)n6ccnc6)C(C)(C)[C@@H]5CC[C@]43C)[C@@H]12 [Compound 38, 30-methoxylup-20(29)-en-3β,28-di-yl-(1H-imidazole-1-carboxylate)] | 19.6 ± 1.6 | 16.2 ± 1 | > 30 | 170 ± 17.7 | 7.3 ± 1.1 | 8.1 ± 1 | 2 ± 0.3 | 
10 | C=C(COC)[C@@H]1CC[C@]2(COC(=O)n3ccnc3C)CC[C@]3(C)[C@H](CC[C@@H]4[C@@]5(C)CC[C@H](OC(=O)n6ccnc6C)C(C)(C)[C@@H]5CC[C@]43C)[C@@H]12 [Compound 39, 30-methoxylup-20(29)-en-3β,28-di-yl-(2′-methyl-1H-imidazole-1-carboxylate)] | 28.2 ± 2.5 | > 30 | 13.4 ± 0.6 |  |  |  |  | 
11 | C[C@@H](C=O)[C@@H]1CC[C@]2(COC(=O)n3ccnc3)CC[C@]3(C)[C@H](CC[C@@H]4[C@@]5(C)CC[C@H](O)C(C)(C)[C@@H]5CC[C@]43C)[C@@H]12 [Compound 41, 3β-hydroxy-(20R)-lupan-29-oxo-28-yl-1H-imidazole-1-carboxylate] | 11.5 ± 1.1 | 13.7 ± 1.4 | 11.1 ± 1.4 | 146 ± 4.5 | > 30 | 15.6 ± 2.4 | 16.7 ± 2.4 | 
12 | C=C(C)[C@@H]1CC[C@]2(C(=O)n3ccnc3)CC[C@]3(C)[C@H](CC[C@@H]4[C@@]5(C)C=C(O)C(=O)C(C)(C)[C@@H]5CC[C@]43C)[C@@H]12 [Compound 48, 2-hydroxy-28-(1H-imidazol-1-yl)-lup-1,20(29)-dien-3,28-dione] | 6.5 ± 0.4 | 7 ± 1.6 | 4.6 ± 0.7 | 62.8 ± 10.3 |  |  |  | 
13 | C=C(C)[C@@H]1CC[C@]2(C(=O)n3ccnc3)CC[C@]3(C)[C@H](CC[C@@H]4[C@@]5(C)C=C(OC(=O)n6ccnc6)C(=O)C(C)(C)[C@@H]5CC[C@]43C)[C@@H]12 [Compound 49, 2-(1H-imidazole-1-carbonyloxy)-28-(1H-imidazol-1-yl)-lup-1,20(29)-dien-3,28-dione] | 4 ± 0.3 | 8.1 ± 0.6 | 3.9 ± 0.3 | 71.6 ± 4.9 |  |  |  | 
